Data reported in patent publication US9896659B2, “Methods, kits, and compositions for stem cell self-renewal” (STOWERS INSTITUTE FOR MEDICAL RESEARCH, priority 2011, dated 2018).
“Also recorded” adds a separate entry of the source.

Assays:
[1] = test system: lethally irradiated recipients; experiment: Limiting-dilution competitive repopulating unit (CRU) assay; format: in vivo, mouse; conditions: CHIR99021 versus ST media (2/0.4)
Method: FIGS. 27A-C show ex vivo expansion of normal, long-term repopulating HSC. MNCs containing a known quantity of LSK Flk2^− cells were cultured for 14 days with and without CHIR99021. The cultured progeny of MNCs containing a pre-culture dosage of 0.1, 0.3 or 1.0 LSK Flk2^− cells were transplanted into lethally irradiated recipients along with 1×10^5 rescue/competitor cells (n=10 for each of 6 groups). Peripheral blood was analyzed at 16 weeks post-transplant and competitive repopulating unit (CRU) frequency was determined using L-Calc software (Stem Cell Technologies, Inc.) based on Poisson statistics (Zhang, C. C. & Lodish, H. F. Murine hematopoietic stem cells change their surface phenotype during ex vivo expansion. Blood, Vol. 105, pages 4314-4320 (2005); Miller, C. L. & Eaves, C. J. Expansion in vitro of adult murine hematopoietic stem cells with transplantable lympho-myeloid reconstituting ability. Proceedings of the National Academy of Sciences of the United States of America, Vol. 94, pages 13648-13653 (1997)). […] Peripheral blood was analyzed for percent donor repopulation at 16 weeks post-1°, 2°, and 3° transplant (upper panels) and percent mature donor-derived B, T and myeloid cells (lower panels). […]

[2] = test system: lethally irradiated CD45.1 recipient mice; experiment: Competitive repopulation assay of 14-day cultures; format: in vivo, mouse; conditions: for Average repopulation: long-term engraftment (FIGS. 5 and 13)
Method: For the experimental results shown in FIG. 13A, sorted LSK Flk2^− cells and unsorted MNCs containing a known quantity of LSK Flk2^− cells (CD45.2^+) were cultured for 14 days in ST media with and without CHIR99021. The cultured product of 100 sorted or 5 unsorted LSK Flk2^− cells per mouse were transplanted into lethally irradiated recipients (CD45.1^+). 5 freshly isolated, unsorted LSK Flk2^− cells per mouse were transplanted into a separate group. 1×10^5 freshly isolated CD45.1^+ competitor/radioprotective cells were also added per mouse. Peripheral blood analysis of recipients at 16 weeks post-transplant depicts % chimerism.
(§1) Bone marrow mononuclear cells (MNCs) were fractionated and the concentration of lineage marker negative, Sca-1^+, c-Kit^+, Flk2^− (LSKF^−) cells was determined. MNCs containing a known quantity of LSKF^− cells were cultured for 14 days in media containing SCF and Tpo (ST), ST media with 250 nM CHIR99021 or ST media with 2 mM lithium chloride (LiCl) as indicated. After 14 days, the cellular product of these cultures was transplanted into lethally-irradiated recipients (10 Gray units) at a dosage corresponding to an original input into culture of MNCs containing 5 LSKF^− cells per mouse for each group. 1×10^5 competitor bone marrow cells congenic with the hosts (CD45.1^+) were included per mouse. At 4 weeks post-transplant, peripheral blood was collected from each transplant recipient, and donor vs. host derived hematopoietic cells were determined by FACS analysis.
as §1, with “At 16” for “At 4”
Cells were incubated at 37° C. with 5% CO2 and 5% O2 (balance N2) for 14 days. […]

LSK Flk2^− cells = experiment: 10-day culture of bone marrow MNCs with PI3K inhibitor, CHIR99021 or without insulin, expansion of LSK Flk2^− cells; format: cell-based, mouse; conditions: 10 days culture; 250 nM CHIR99021; NVP-BEZ235 at indicated concentrations

## Cc1c[nH]c(-c2cnc(NCCNc3ccc(C#N)cn3)nc2-c2ccc(Cl)cc2Cl)n1 [CHIR99021]
[1]
  Increase of CRU frequency: 5 fold
[2]; 4 weeks post-transplant, 250 nM CHIR99021 or 2 mM LiCl in ST media, 14 days
  Repopulation capacity of ex vivo expanded HSCs: enhance repopulation capacity of ex vivo expanded hematopoietic stem cells
[2]; 16 weeks post-transplant, 250 nM CHIR99021 or 2 mM LiCl in ST media, 14 days
  Long-term repopulation / engraftment of ex vivo expanded HSCs: enhance long-term repopulation capacity of ex vivo expanded hematopoietic stem cells; also recorded: enhances long-term engraftment of ex vivo expanded HSCs
[2]; 100 sorted putative HSCs cultured 14 days
  Average repopulation: 12.3%
[2]; unsorted MNC cultures, 14 days
  Average repopulation: 64.8%
LSK Flk2^− cells
  Expansion of LSK Flk2^− cells: increased the expansion
